ChEMBL document CHEMBL1177695, “Discovery and development of natural product-derived chemotherapeutic agents based on a medicinal chemistry approach” (J Nat Prod, 2010)
≈ marks a conversion by molar mass, not a printed value.

What was measured:
[1] = tested on: Human immunodeficiency virus 1; test: Antiviral activity against HIV1 3B infected in H9 cells assessed as inhibition of viral replication by p24 antigen ELISA; assay type: functional, organism-based; details: Human immunodeficiency virus 1, 3B, H9; read-out: EC50
[2] = Therapeutic index, ratio of IC50 for human H9 cells to EC50 for HIV 3B; assay type: cell-based; details: read-out: TI
[3] = Oral bioavailability in rat; assay type: ADME, organism-based; details: in vivo
[4] = Cytotoxicity against human Hep3B cells after 72 hrs by MTT assay; assay type: functional, cell-based, Hep 3B2
MCF7 = test: Cytotoxicity against human MCF7 cells after 72 hrs by MTT assay; assay type: functional, cell-based; details: MCF7, 72 h
MDA-MB-231 = test: Cytotoxicity against human MDA-MB-231 cells after 72 hrs by MTT assay; assay type: functional, cell-based; details: MDA-MB-231, 72 h
[5] = Growth inhibition of human lung cancer cells; assay type: functional; details: Cancer cell lines
[6] = Growth inhibition of human renal cancer cells; assay type: functional; details: Cancer cell lines
[7] = Growth inhibition of human leukemia cells; assay type: functional; details: Leukemia cell
[8] = Growth inhibition of human melanoma cells; assay type: functional; details: Melanoma cell
[9] = Growth inhibition of human CNS cancer cells; assay type: functional; details: Cancer cell lines
[10] = Growth inhibition of human colon cancer cells; assay type: functional; details: Cancer cell lines
[11] = Growth inhibition of human ovarian cancer cells; assay type: functional; details: Cancer cell lines
[12] = tested on: Human immunodeficiency virus 1; test: Antiviral activity against HIV1 NL4-3; assay type: functional, organism-based; details: Human immunodeficiency virus 1, NL4-3
[13] = tested on: Human immunodeficiency virus 1; test: Antiviral activity against HIV1 PI-R; assay type: functional, organism-based; details: Human immunodeficiency virus 1, PI-R
melanoma (human) = test: Growth inhibition of human melanoma cells; details: Melanoma tumor cell line
[14] = tested on: Human immunodeficiency virus 1; test: Antiviral activity against HIV1 infected in human CEM-SS cells assessed as inhibition of viral replication; assay type: functional, organism-based; details: Human immunodeficiency virus 1, CEM-SS

Cc1c(CO)c(=O)oc2c3c(ccc12)OC(C)(C)[C@H](OC(=O)C12CCC(C)(C(=O)O1)C2(C)C)[C@@H]3OC(=O)C12CCC(C)(C(=O)O1)C2(C)C (some centres not stated)
EC50 [1]: 0.0042 µM | selectivity ratio [2]: 6000 | bioavailability [3]: 15%

O=C1C=CC(O)(c2cc(=O)c3c(ccc4ccccc43)o2)C=C1
IC50 [4]: 0.3 mg/L (≈ 0.986 µM) | IC50 (MCF7): 0.66 mg/L (≈ 2.17 µM) | IC50 (MDA-MB-231): 0.39 mg/L (≈ 1.28 µM)

COC(=O)[C@]12OC[C@]34[C@H]([C@@H](O)[C@@H]1O)[C@@]1(C)CC(=O)C(O)=C(C)[C@@H]1C[C@H]3OC(=O)[C@H](OC(=O)/C=C(/C)C(F)(F)F)[C@@H]24
GI50 [5]: 0.1 µM | GI50 [6]: 0.1 µM | GI50 [7]: 0.1 µM | GI50 [8]: 0.1 µM | GI50 [9]: 0.1 µM | GI50 [10]: 0.1 µM | GI50 [11]: 0.1 µM

CC(C)C[C@@H](NC(=O)[C@]12CCC(C)(C)C=C1[C@H]1CC[C@@H]3[C@@]4(C)CC[C@H](OC(=O)CC(C)(C)C(=O)O)C(C)(C)[C@@H]4CC[C@@]3(C)[C@]1(C)CC2)C(=O)O
EC50 [12]: 0.0085 µM | EC50 [13]: 0.021 µM

O=C1c2ccsc2C(=O)c2sc(CO)cc21
GI50 (melanoma (human)): 0.0182 µM

Cc1cc(=S)oc2c3c(ccc12)OC(C)(C)[C@H](OC(=O)C12CCC(C)(C(=O)O1)C2(C)C)[C@@H]3OC(=O)C12CCC(C)(C(=O)O1)C2(C)C (some centres not stated)
EC50 [14]: 0.064 µM
